Assay results reported in ChEMBL document CHEMBL5303573, “Mapping human microbiome drug metabolism by gut bacteria and their genes” (Nature, 2019).

Legend:
[1] = The drug is tested on Coprococcus comes strain: ATCC27758 for biotransformation. The drug concentrations were measured before and after a 12-h incubation by liquid-chromatography-coupled mass spectrometry (LC–MS); type: ADME; parameters: dose 2 uM, timepoint 0 vs 12 hours; conditions: 2 µM
[2] = The drug is tested on Bacteroides fragilis strain: ATCC43859 for biotransformation. The drug concentrations were measured before and after a 12-h incubation by liquid-chromatography-coupled mass spectrometry (LC–MS); conditions: 2 µM
[3] = The drug is tested on Clostridium ramosum strain: DSM1402 for biotransformation. The drug concentrations were measured before and after a 12-h incubation by liquid-chromatography-coupled mass spectrometry (LC–MS); conditions: thomasclavelia ramosa, 2 µM
[4] = The drug is tested on Bacteroides dorei strain: DSM17855 for biotransformation. The drug concentrations were measured before and after a 12-h incubation by liquid-chromatography-coupled mass spectrometry (LC–MS); conditions: phocaeicola dorei, 2 µM
[5] = The drug is tested on Collinsella intestinalis strain: DSM13280 for biotransformation. The drug concentrations were measured before and after a 12-h incubation by liquid-chromatography-coupled mass spectrometry (LC–MS); conditions: 2 µM
[6] = bacteroides intestinalis, 12 h, 2 µM
Description: The drug is tested on Bacteroides intestinalis strain: DSM17393 for biotransformation. The drug concentrations were measured before and after a 12-h incubation by liquid-chromatography-coupled mass spectrometry (LC–MS)

[7] = The drug is tested on Clostridium sporogenes strain: ATCC15579 for biotransformation. The drug concentrations were measured before and after a 12-h incubation by liquid-chromatography-coupled mass spectrometry (LC–MS); conditions: 2 µM
[8] = The drug is tested on Escherichia coli strain: BW25113 for biotransformation. The drug concentrations were measured before and after a 12-h incubation by liquid-chromatography-coupled mass spectrometry (LC–MS); conditions: 2 µM
[9] = The drug is tested on Bacteroides pectinophilus strain: ATCC43243 for biotransformation. The drug concentrations were measured before and after a 12-h incubation by liquid-chromatography-coupled mass spectrometry (LC–MS); conditions: 2 µM
[10] = bacteroides eggerthii, 12 h, 2 µM
Description: The drug is tested on Bacteroides eggerthii strain: DSM20697 for biotransformation. The drug concentrations were measured before and after a 12-h incubation by liquid-chromatography-coupled mass spectrometry (LC–MS)

[11] = roseburia intestinalis, 12 h, 2 µM
Description: The drug is tested on Roseburia intestinalis strain: L1-82 for biotransformation. The drug concentrations were measured before and after a 12-h incubation by liquid-chromatography-coupled mass spectrometry (LC–MS)

[12] = The drug is tested on Bifidobacterium longum subsp. Infantis strain: CCUG52486 for biotransformation. The drug concentrations were measured before and after a 12-h incubation by liquid-chromatography-coupled mass spectrometry (LC–MS); conditions: 2 µM
[13] = The drug is tested on Clostridium sp. strain: fecal isolate for biotransformation. The drug concentrations were measured before and after a 12-h incubation by liquid-chromatography-coupled mass spectrometry (LC–MS); conditions: 2 µM
[14] = The drug is tested on Providencia stuartii strain: ATCC25827 for biotransformation. The drug concentrations were measured before and after a 12-h incubation by liquid-chromatography-coupled mass spectrometry (LC–MS); conditions: 2 µM
[15] = segatella copri, 12 h, 2 µM
Description: The drug is tested on Prevotella copri strain: DSM18205 for biotransformation. The drug concentrations were measured before and after a 12-h incubation by liquid-chromatography-coupled mass spectrometry (LC–MS)

[16] = The drug is tested on Clostridium asparagiforme strain: DSM15981 for biotransformation. The drug concentrations were measured before and after a 12-h incubation by liquid-chromatography-coupled mass spectrometry (LC–MS); type: ADME; parameters: dose 2 uM, timepoint 0 vs 12 hours; conditions: enterocloster asparagiformis, 2 µM
[17] = The drug is tested on Collinsella aerofaciens strain: ATCC25986 for biotransformation. The drug concentrations were measured before and after a 12-h incubation by liquid-chromatography-coupled mass spectrometry (LC–MS); conditions: 2 µM
[18] = The drug is tested on Eubacterium rectale strain: ATCC33656 for biotransformation. The drug concentrations were measured before and after a 12-h incubation by liquid-chromatography-coupled mass spectrometry (LC–MS); conditions: agathobacter rectalis, 2 µM
[19] = bacteroides thetaiotaomicron, 12 h, 2 µM
Description: The drug is tested on Bacteroides thetaiotaomicron strain: 7330 for biotransformation. The drug concentrations were measured before and after a 12-h incubation by liquid-chromatography-coupled mass spectrometry (LC–MS)

[20] = The drug is tested on Bifidobacterium ruminantium strain: fecal isolate for biotransformation. The drug concentrations were measured before and after a 12-h incubation by liquid-chromatography-coupled mass spectrometry (LC–MS); conditions: 2 µM

Row | Compound | Bacterial Biotransformation [1] | Bacterial Biotransformation [2] | Bacterial Biotransformation [3] | Bacterial Biotransformation [4] | Bacterial Biotransformation [5] | Bacterial Biotransformation [6] | Bacterial Biotransformation [7] | Bacterial Biotransformation [8] | Bacterial Biotransformation [9] | Bacterial Biotransformation [10] | Bacterial Biotransformation [11] | Bacterial Biotransformation [12] | Bacterial Biotransformation [13] | Bacterial Biotransformation [14] | Bacterial Biotransformation [15] | Bacterial Biotransformation [16] | Bacterial Biotransformation [17] | Bacterial Biotransformation [18] | Bacterial Biotransformation [19] | Bacterial Biotransformation [20]
1 | CN(C)CC(c1ccc(O)cc1)C1(O)CCCCC1.O=C(O)CCC(=O)O (stereo not drawn) [DESVENLAFAXINE SUCCINATE] | Compound NOT metabolized | Compound NOT metabolized | Compound NOT metabolized | Compound NOT metabolized | Compound NOT metabolized | Compound NOT metabolized | Compound NOT metabolized | Compound NOT metabolized | Compound NOT metabolized | Compound NOT metabolized | Compound NOT metabolized | Compound NOT metabolized | Compound NOT metabolized | Compound NOT metabolized | Compound NOT metabolized | Compound NOT metabolized | Compound NOT metabolized |  |  | 
2 | O=C1NCC2(CCN(CCc3ccccc3)CC2)O1 [FENSPIRIDE] | Compound NOT metabolized | Compound metabolized | Compound NOT metabolized | Compound metabolized | Compound NOT metabolized |  | Compound NOT metabolized | Compound NOT metabolized | Compound NOT metabolized |  | Compound NOT metabolized | Compound NOT metabolized | Compound NOT metabolized | Compound NOT metabolized | Compound metabolized | Compound NOT metabolized | Compound NOT metabolized | Compound NOT metabolized | Compound metabolized | 
3 | COC(=O)C1=C(C)NC(C)=C(C(=O)OC(C)C)C1c1cccc2nonc12 (stereo not drawn) [ISRADIPINE] | Compound NOT metabolized | Compound NOT metabolized | Compound NOT metabolized | Compound NOT metabolized | Compound NOT metabolized | Compound NOT metabolized | Compound NOT metabolized | Compound NOT metabolized | Compound NOT metabolized | Compound NOT metabolized | Compound NOT metabolized | Compound NOT metabolized | Compound NOT metabolized | Compound NOT metabolized | Compound NOT metabolized | Compound NOT metabolized | Compound NOT metabolized |  | Compound NOT metabolized | Compound NOT metabolized
4 | Fc1ccc([C@@H]2CCNC[C@H]2COc2ccc3c(c2)OCO3)cc1 [PAROXETINE] | Compound NOT metabolized | Compound NOT metabolized | Compound NOT metabolized |  | Compound NOT metabolized | Compound NOT metabolized |  | Compound NOT metabolized | Compound metabolized | Compound NOT metabolized | Compound NOT metabolized | Compound NOT metabolized | Compound metabolized | Compound NOT metabolized | Compound NOT metabolized | Compound NOT metabolized | Compound NOT metabolized |  | Compound NOT metabolized | Compound NOT metabolized
5 | C=CCN1CC[C@]23c4c5ccc(O)c4O[C@H]2C(=O)CC[C@@]3(O)[C@H]1C5 [NALOXONE] | Compound NOT metabolized | Compound metabolized | Compound NOT metabolized | Compound metabolized | Compound NOT metabolized |  | Compound metabolized | Compound NOT metabolized | Compound NOT metabolized | Compound metabolized | Compound metabolized | Compound NOT metabolized | Compound metabolized | Compound NOT metabolized | Compound metabolized | Compound NOT metabolized | Compound NOT metabolized |  | Compound metabolized | Compound NOT metabolized
6 | C[C@H]1O[C@@H](O[C@H]2[C@@H](O)C[C@H](O[C@H]3[C@@H](O)C[C@H](O[C@H]4CC[C@@]5(C)[C@H](CC[C@@H]6[C@@H]5C[C@@H](O)[C@]5(C)[C@@H](C7=CC(=O)OC7)CC[C@]65O)C4)O[C@@H]3C)O[C@@H]2C)C[C@H](O)[C@@H]1O [DIGOXIN] | Compound NOT metabolized | Compound metabolized | Compound NOT metabolized | Compound metabolized | Compound NOT metabolized | Compound NOT metabolized | Compound NOT metabolized | Compound NOT metabolized | Compound NOT metabolized | Compound metabolized | Compound NOT metabolized | Compound NOT metabolized | Compound metabolized | Compound NOT metabolized | Compound NOT metabolized | Compound NOT metabolized | Compound NOT metabolized |  | Compound metabolized | 
7 | CC1OC(OC2C(O)CC(OC3C(O)CC(OC4CCC5(C)C(CCC6C5CCC5(C)C(C7=CC(=O)OC7)CCC65O)C4)OC3C)OC2C)CC(O)C1O (stereo not drawn) | Compound NOT metabolized | Compound metabolized | Compound NOT metabolized | Compound metabolized | Compound NOT metabolized |  | Compound metabolized | Compound NOT metabolized | Compound NOT metabolized | Compound metabolized | Compound NOT metabolized | Compound NOT metabolized | Compound metabolized | Compound NOT metabolized | Compound metabolized | Compound NOT metabolized | Compound NOT metabolized | Compound NOT metabolized | Compound metabolized | 
8 | O=C(Nc1ccccc1)OCC(CN1CCCCC1)OC(=O)Nc1ccccc1 (stereo not drawn) [DIPERODON] | Compound NOT metabolized | Compound NOT metabolized | Compound NOT metabolized | Compound NOT metabolized | Compound NOT metabolized | Compound NOT metabolized | Compound NOT metabolized | Compound NOT metabolized | Compound NOT metabolized | Compound NOT metabolized | Compound NOT metabolized | Compound NOT metabolized |  | Compound NOT metabolized | Compound NOT metabolized | Compound NOT metabolized | Compound NOT metabolized | Compound NOT metabolized | Compound NOT metabolized | Compound NOT metabolized
